# Assay: recombinant UMI read abundance after kanamycin selection (control-corrected) (log10(CPM+1)); higher = more efficient recombination; extreme values may be limits of the assay; sequences stand for … in AGTGCAGAGAAAATCGGCCAGTTTTCTCTGCCTGCAGTCCGCATGCCGTGGGACCCCTTGGGTTCTAACCTGTTGCCTAGATTTATGCAGCGGACTGCCTTTCTCCCAAAGTGATAAACCGG…AGGTTGGTTTCACT; site = the 11-nt donor
# Outline: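 Each donor and donor-binding-loop pair was tracked by a 12-nt UMI on a plasmid carrying a promoterless kanamycin gene. With a second plasmid supplying a fixed target and T7-inducible IS621 bridge recombinase, the pool was plated in Escherichia coli on IPTG (0.07 mM) plus kanamycin or unselected. Sequencing of recombinant UMIs across the donor–target junction gave counts expressed as log10(CPM+1) after replicate averaging and control-derived scaling.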
row,Sequence,recombinant UMI read abundance (log10)
1,GGCGATACATGGACCGGTTTTCCCGGTAATCCGTATTTGTT (site GGCGATACTAA),1.81
2,GGCGCACCATGGACCGGTTTTCCCGGTAATCCGTATTTGCA (site GGAGCACCTTG),0
3,GGCGCACCATGGACCGGTTTTCCCGGTAATCCGTATTTGCA (site GGCGCACCTTG),0
4,GGCGCACCATGGACCGGTTTTCCCGGTAATCCGTATTTGCA (site GGGGCACCTTG),0
5,GGCGCACCATGGACCGGTTTTCCCGGTAATCCGTATTTGCA (site GGTGCACCTTG),0.00254
6,GGCGCAGCATGGACCGGTTTTCCCGGTAATCCGTATTTGTT (site GGCGCAGCTAA),0.794
7,GGCTAATCATGGACCGGTTTTCCCGGTAATCCGTATTTGAT (site GGCTAATCTAT),0.935
8,GGCTACTCATGGACCGGTTTTCCCGGTAATCCGTATTTGCT (site GGCTACTCTAG),2.43
9,GGCTCTACATGGACCGGTTTTCCCGGTAATCCGTATTTGGT (site GGCTCTACTAC),0
10,GGCTTGGCATGGACCGGTTTTCCCGGTAATCCGTATTTGGT (site GGCTTGGCTAC),0.216
11,GGGAATACATGGACCGGTTTTCCCGGTAATCCGTATTTGCA (site AGGAAGACTTG),0
12,GGGAATACATGGACCGGTTTTCCCGGTAATCCGTATTTGCA (site GGGAATACTTG),1.37
13,GGGAATACATGGACCGGTTTTCCCGGTAATCCGTATTTGTT (site CGGAATCCTAA),0
14,GGGAATACATGGACCGGTTTTCCCGGTAATCCGTATTTGTT (site GGGAATACTAA),1.29
15,GGGAATCCATGGACCGGTTTTCCCGGTAATCCGTATTTGAA (site GGAAATCCTTT),0.0039
16,GGGAATCCATGGACCGGTTTTCCCGGTAATCCGTATTTGAA (site GGCAATCCTTT),0.00362
17,GGGAATCCATGGACCGGTTTTCCCGGTAATCCGTATTTGAA (site GGGAATCCTTT),0.808
18,GGGAATCCATGGACCGGTTTTCCCGGTAATCCGTATTTGAA (site GGTAATCCTTT),0.0108
19,GGGACATCATGGACCGGTTTTCCCGGTAATCCGTATTTGCT (site AGGACATCTAG),0
20,GGGACATCATGGACCGGTTTTCCCGGTAATCCGTATTTGCT (site CGGACATCTAG),0
21,GGGACATCATGGACCGGTTTTCCCGGTAATCCGTATTTGCT (site GGGACATCTAG),1.43
22,GGGACATCATGGACCGGTTTTCCCGGTAATCCGTATTTGCT (site TGGACATCTAG),0
23,GGGACTACATGGACCGGTTTTCCCGGTAATCCGTATTTGCA (site GGGACTACTTG),1.67

row,Sequence,recombinant UMI read abundance (log10)
1,GGGACTTCATGGACCGGTTTTCCCGGTAATCCGTATTTGTG (site GGGACTTCTCA),0.746
2,GGGATCGCATGGACCGGTTTTCCCGGTAATCCGTATTTGCT (site GGGATCGCTAG),3.09
3,GGGATGACATGGACCGGTTTTCCCGGTAATCCGTATTTGAG (site GGGATGACTCT),1.86
4,GGGATGCCATGGACCGGTTTTCCCGGTAATCCGTATTTGGC (site GGGATGCCTGC),0
5,GGGCAACCATGGACCGGTTTTCCCGGTAATCCGTATTTGCG (site GGGCAACCTCG),0
6,GGGCAGACATGGACCGGTTTTCCCGGTAATCCGTATTTGCA (site AGGAAGACTTG),0.0416
7,GGGCAGACATGGACCGGTTTTCCCGGTAATCCGTATTTGCA (site GGGCAGACTTG),2.58
8,GGGGAACCATGGACCGGTTTTCCCGGTAATCCGTATTTGCA (site GGGGAACCTTG),0
9,GGGGAACCATGGACCGGTTTTCCCGGTAATCCGTATTTGCA (site GGGGCACCTTG),0
10,GGGGAACCATGGACCGGTTTTCCCGGTAATCCGTATTTGCA (site GGGGGACCTTG),0
11,GGGGAACCATGGACCGGTTTTCCCGGTAATCCGTATTTGCA (site GGGGTACCTTG),0
12,GGGGAATCATGGACCGGTTTTCCCGGTAATCCGTATTTGGG (site GGGGAATCTCC),0.39
13,GGGGCAACATGGACCGGTTTTCCCGGTAATCCGTATTTGTC (site GGGGCAACTGA),1.94
14,GGGGTAACATGGACCGGTTTTCCCGGTAATCCGTATTTGGG (site GGGGTAACTCC),0.597
15,GGGGTTGCATGGACCGGTTTTCCCGGTAATCCGTATTTGCG (site GGGGTTGCTCG),1.75
16,GGGTACACATGGACCGGTTTTCCCGGTAATCCGTATTTGGC (site GGGTACACTGC),3.08
17,GGGTCGGCATGGACCGGTTTTCCCGGTAATCCGTATTTGGC (site GGGTCGGCTGC),2.18
18,GGGTGTTCATGGACCGGTTTTCCCGGTAATCCGTATTTGTT (site GGGTGTTCTAA),1.1
19,GGGTTGACATGGACCGGTTTTCCCGGTAATCCGTATTTGAA (site GGGTTGACTTT),0.979
20,GGTAAGTCATGGACCGGTTTTCCCGGTAATCCGTATTTGTT (site GGTAAGTCTAA),1.98
21,GGTAAGTCATGGACCGGTTTTCCCGGTAATCCGTATTTGTT (site GGTACGTCTAA),0.00407
22,GGTAAGTCATGGACCGGTTTTCCCGGTAATCCGTATTTGTT (site GGTAGGTCTAA),0.00944
23,GGTAAGTCATGGACCGGTTTTCCCGGTAATCCGTATTTGTT (site GGTATGTCTAA),0.00986

row,Sequence,recombinant UMI read abundance (log10)
1,GGTAATCCATGGACCGGTTTTCCCGGTAATCCGTATTTGAA (site GGAAATCCTTT),0.00275
2,GGTAATCCATGGACCGGTTTTCCCGGTAATCCGTATTTGAA (site GGCAATCCTTT),0.58
3,GGTAATCCATGGACCGGTTTTCCCGGTAATCCGTATTTGAA (site GGGAATCCTTT),0.00622
4,GGTAATCCATGGACCGGTTTTCCCGGTAATCCGTATTTGAA (site GGTAATCCTTT),0.27
5,GGTACATCATGGACCGGTTTTCCCGGTAATCCGTATTTGAG (site GGTACATCTCT),0.66
6,GGTACGACATGGACCGGTTTTCCCGGTAATCCGTATTTGTT (site GGTACGACTAA),0.444
7,GGTACGACATGGACCGGTTTTCCCGGTAATCCGTATTTGTT (site GGTACGCCTAA),0.0177
8,GGTACGACATGGACCGGTTTTCCCGGTAATCCGTATTTGTT (site GGTACGGCTAA),0.0185
9,GGTACGACATGGACCGGTTTTCCCGGTAATCCGTATTTGTT (site GGTACGTCTAA),0.0179
10,GGTACGTCATGGACCGGTTTTCCCGGTAATCCGTATTTGTC (site GGTACGTCTAA),0.0158
11,GGTACGTCATGGACCGGTTTTCCCGGTAATCCGTATTTGTC (site GGTACGTCTCA),0.0113
12,GGTACGTCATGGACCGGTTTTCCCGGTAATCCGTATTTGTC (site GGTACGTCTGA),0.0103
13,GGTACGTCATGGACCGGTTTTCCCGGTAATCCGTATTTGTC (site GGTACGTCTTA),0.0125
14,GGTATGCCATGGACCGGTTTTCCCGGTAATCCGTATTTGAC (site GGTATGCCTGT),0
15,GGTATTTCATGGACCGGTTTTCCCGGTAATCCGTATTTGAA (site GGTATTTCTTT),0
16,GGTCAAGCATGGACCGGTTTTCCCGGTAATCCGTATTTGGC (site GGTCAAGCTGC),1.47
17,GGTCCATCATGGACCGGTTTTCCCGGTAATCCGTATTTGTA (site GGTCCAACTTA),0.016
18,GGTCCATCATGGACCGGTTTTCCCGGTAATCCGTATTTGTA (site GGTCCACCTTA),0.0104
19,GGTCCATCATGGACCGGTTTTCCCGGTAATCCGTATTTGTA (site GGTCCAGCTTA),0.00308
20,GGTCCATCATGGACCGGTTTTCCCGGTAATCCGTATTTGTA (site GGTCCATCTTA),0.459
21,GGTCCCACATGGACCGGTTTTCCCGGTAATCCGTATTTGTA (site GGTCCAACTTA),0
22,GGTCCCACATGGACCGGTTTTCCCGGTAATCCGTATTTGTA (site GGTCCCACTTA),0.0202

# From the supplement of paper PMC11208160
